From patent EP4796538A1, “NOVEL QUINOXALINE COMPOUNDS, MANUFACTURING METHOD THEREOF, AND USES THEREOF” (Gachon University of Industry-Academic Cooperation …, priority 2023, dated 2025)
Where two headings read alike, the source gives them in different places.

Tests used:
RET(G810R) = biological target: T1, RET(G810R) (Homo sapiens, UniProt P07949, G810R); assay: Kinase panel inhibition, radiolabeled [γ-33P] ATP (Reaction Biology Corp); assay type: biochemical; settings: for remaining activity at 1 µM: compound at 1 uM, ATP 10 µM, read-out: % Enzyme Activity (relative to DMSO controls) G810R; for IC50: read-out: Enzymatic inhibitory activity (IC50) nM G810R
T1 construct: purchased Reaction Biology Corp
T1 sequence (P07949 29-1114 G810R): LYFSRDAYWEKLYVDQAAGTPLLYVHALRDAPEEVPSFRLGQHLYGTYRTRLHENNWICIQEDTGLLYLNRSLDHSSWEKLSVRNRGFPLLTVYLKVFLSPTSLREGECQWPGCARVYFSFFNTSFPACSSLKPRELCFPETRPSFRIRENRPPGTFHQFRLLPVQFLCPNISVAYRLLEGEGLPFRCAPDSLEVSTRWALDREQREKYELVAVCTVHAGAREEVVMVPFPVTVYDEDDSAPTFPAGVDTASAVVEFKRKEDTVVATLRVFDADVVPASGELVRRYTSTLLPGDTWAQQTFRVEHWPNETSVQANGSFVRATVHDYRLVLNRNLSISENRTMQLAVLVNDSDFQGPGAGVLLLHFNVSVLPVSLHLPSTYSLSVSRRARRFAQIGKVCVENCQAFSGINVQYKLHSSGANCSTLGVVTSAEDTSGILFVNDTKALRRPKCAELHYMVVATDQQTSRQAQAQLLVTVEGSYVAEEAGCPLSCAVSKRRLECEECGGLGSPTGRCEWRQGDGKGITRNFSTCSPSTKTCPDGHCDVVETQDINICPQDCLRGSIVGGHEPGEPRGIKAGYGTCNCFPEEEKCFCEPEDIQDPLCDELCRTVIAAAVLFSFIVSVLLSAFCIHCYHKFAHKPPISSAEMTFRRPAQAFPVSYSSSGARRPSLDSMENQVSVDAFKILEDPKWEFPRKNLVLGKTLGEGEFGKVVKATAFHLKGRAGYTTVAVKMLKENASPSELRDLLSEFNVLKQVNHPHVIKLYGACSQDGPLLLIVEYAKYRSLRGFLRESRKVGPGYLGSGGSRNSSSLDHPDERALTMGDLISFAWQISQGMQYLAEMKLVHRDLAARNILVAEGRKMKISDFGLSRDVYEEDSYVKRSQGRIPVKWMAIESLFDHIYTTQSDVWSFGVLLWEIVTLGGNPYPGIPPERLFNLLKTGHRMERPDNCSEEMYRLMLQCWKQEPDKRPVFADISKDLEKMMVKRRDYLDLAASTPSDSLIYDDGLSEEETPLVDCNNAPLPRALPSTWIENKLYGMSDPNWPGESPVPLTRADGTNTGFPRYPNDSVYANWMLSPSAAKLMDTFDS

KIF5B-RET = biological target: T2, KIF5B-RET (Homo sapiens, UniProt P07949); assay: as above; assay type: biochemical; settings: read-out: Enzymatic inhibitory activity (IC50) nM KIF5B-RET
T2 sequence (P07949 713-1114): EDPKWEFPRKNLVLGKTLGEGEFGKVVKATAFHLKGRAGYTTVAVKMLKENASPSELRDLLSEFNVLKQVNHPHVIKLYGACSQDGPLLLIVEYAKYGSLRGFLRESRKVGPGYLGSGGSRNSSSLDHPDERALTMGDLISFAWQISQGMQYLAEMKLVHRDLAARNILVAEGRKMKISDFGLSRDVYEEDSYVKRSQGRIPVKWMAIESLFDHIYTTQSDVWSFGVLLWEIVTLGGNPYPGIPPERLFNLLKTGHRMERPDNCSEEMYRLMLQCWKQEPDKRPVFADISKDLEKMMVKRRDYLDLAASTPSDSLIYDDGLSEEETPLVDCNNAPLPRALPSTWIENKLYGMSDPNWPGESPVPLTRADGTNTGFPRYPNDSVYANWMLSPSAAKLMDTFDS
T2 sequence (P33176 2-575 partner): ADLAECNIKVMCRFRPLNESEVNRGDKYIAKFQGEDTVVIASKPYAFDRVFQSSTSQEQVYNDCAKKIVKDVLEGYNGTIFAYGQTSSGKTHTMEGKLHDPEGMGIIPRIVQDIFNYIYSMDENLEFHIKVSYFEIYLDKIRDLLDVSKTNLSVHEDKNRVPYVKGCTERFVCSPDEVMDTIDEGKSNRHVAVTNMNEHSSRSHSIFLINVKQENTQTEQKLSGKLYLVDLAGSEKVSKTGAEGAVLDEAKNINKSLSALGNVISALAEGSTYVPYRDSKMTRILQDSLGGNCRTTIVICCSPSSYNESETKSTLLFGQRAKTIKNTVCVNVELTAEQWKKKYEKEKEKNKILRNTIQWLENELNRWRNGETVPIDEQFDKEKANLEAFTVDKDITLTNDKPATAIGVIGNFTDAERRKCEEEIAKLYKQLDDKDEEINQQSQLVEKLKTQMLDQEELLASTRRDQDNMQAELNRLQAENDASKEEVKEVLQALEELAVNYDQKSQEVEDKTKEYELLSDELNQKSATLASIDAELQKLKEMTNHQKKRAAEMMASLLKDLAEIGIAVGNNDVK
Procedure: The inhibitory activities of the example and intermediate compounds of the present invention against a kinase panel (Reaction Biology Corp) of RET and RET mutations (RET(G810R), RET(V804M), KIF5B-RET, RET(V804M)-KIF5B, RET-CCDC6, RET-NCOA4, and RET(G810S/M918T)) were investigated. Using radiolabeled ATP ([γ-33P] ATP), the degree to which the substrate was replaced by a 33P-phosphorylated substrate was measured, and changes in kinase activity were determined from the measurement of the radiolabeled phosphorylated substrate. The example and intermediate compounds were tested at concentrations of 0.1 µM to 30 µM against ATP concentrations of 1 µM or 10 µM. The residual activity (%) of the example and intermediate compounds after inhibition against each kinase panel is shown in Tables 3 to 5 below. […]

BaF3 KIF5B-RET (G810R) = assay: Cell proliferation inhibition, Cell Counting Kit-8, Ba/F3 cell line; assay type: cell-based, rodent; settings: Mus musculus, 72 hours incubation, read-out: Cell Viability of BaF3 Cell lines (IC50 in uM) KIF5B-RET (G810R)
Procedure: As a control compound, selpercatinib, a known RET inhibitor, was treated to calculate the IC50 values.

RET-CCDC6 (PTC1) = biological target: T3, RET-CCDC6 (PTC1) (Homo sapiens, UniProt P07949); assay: Kinase panel inhibition, radiolabeled [γ-33P] ATP (Reaction Biology Corp); assay type: biochemical; settings: for remaining activity at 1 µM: compound at 1 uM, ATP 10 µM, read-out: % Enzyme Activity (relative to DMSO controls) RET-CCDC6 (PTC1); for remaining activity at 10 µM: compound at 10 uM, ATP 1 µM
T3 construct: purchased Reaction Biology Corp
T3 sequence (P07949 whole entry, looked up): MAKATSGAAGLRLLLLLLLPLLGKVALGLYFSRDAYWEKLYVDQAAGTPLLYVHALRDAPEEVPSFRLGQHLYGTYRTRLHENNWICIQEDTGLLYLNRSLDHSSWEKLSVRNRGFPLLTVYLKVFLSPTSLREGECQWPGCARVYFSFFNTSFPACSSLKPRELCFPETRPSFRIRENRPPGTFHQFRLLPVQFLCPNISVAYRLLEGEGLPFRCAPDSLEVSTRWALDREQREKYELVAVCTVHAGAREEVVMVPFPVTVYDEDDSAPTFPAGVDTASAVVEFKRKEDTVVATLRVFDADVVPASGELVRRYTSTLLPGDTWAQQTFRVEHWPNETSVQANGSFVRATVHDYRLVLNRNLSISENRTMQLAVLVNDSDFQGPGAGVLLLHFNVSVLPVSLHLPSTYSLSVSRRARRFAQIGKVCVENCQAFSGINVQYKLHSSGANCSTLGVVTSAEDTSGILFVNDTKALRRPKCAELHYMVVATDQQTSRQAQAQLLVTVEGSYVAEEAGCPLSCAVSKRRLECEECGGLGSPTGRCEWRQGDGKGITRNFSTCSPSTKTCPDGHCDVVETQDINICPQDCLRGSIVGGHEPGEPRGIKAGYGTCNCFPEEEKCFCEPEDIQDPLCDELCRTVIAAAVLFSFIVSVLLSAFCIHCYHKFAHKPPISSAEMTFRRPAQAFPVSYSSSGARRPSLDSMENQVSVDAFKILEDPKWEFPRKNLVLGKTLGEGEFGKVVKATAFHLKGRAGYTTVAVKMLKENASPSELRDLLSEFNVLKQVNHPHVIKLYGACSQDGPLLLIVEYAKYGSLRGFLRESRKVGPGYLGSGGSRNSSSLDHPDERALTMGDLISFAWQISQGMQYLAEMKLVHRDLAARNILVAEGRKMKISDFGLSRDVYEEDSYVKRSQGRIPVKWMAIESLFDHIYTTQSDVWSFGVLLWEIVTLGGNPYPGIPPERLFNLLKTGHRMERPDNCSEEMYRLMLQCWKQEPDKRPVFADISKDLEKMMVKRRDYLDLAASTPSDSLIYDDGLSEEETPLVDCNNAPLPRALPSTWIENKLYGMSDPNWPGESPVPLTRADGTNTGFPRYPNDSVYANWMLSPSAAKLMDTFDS

BaF3-RET(V804M) = assay: Cell proliferation inhibition (GI50), Cell Counting Kit-8, Ba/F3 cell line; assay type: cell-based, rodent; settings: Mus musculus, BaF3; 72 hours incubation; Cell Counting Kit-8; read-out: GI50 of BaF3-RET(V804M)
Procedure: To evaluate the inhibitory activity of the compounds represented by Formula I or Formula IV according to the present invention against RET mutation-driven cell growth in the Ba/F3 cell line and against cell growth in the non-small cell lung cancer cell line A-549, the following experiment was performed.
Each cell line was seeded in a 96-well plate at 1×10^4 cells/90 µL/well, and 10 µL/well of culture medium containing each example and intermediate compound or DMSO control at 9 concentrations (1 nM to 100 µM) prepared by 3-fold serial dilutions was added to achieve a final concentration of 0 to 100 µM, followed by incubation for 72 hours in a 37°C, 5% CO2 incubator. After 72 hours of incubation, the compound-treated plates were removed, and Cell Counting Kit-8 solution was added at 10 µL/well and mixed well. The plates were then incubated for 2 hours in a CO2 incubator at 37°C, and the absorbance was measured at 450 nm using a microplate reader.
In addition, the data were expressed as a percentage relative to vehicle-treated cells, and GI50 values were calculated using GraphPad Prism 8.0 (GraphPad Software Inc., San Diego), and the results are shown in Table 8 below. As a control compound, ponatinib, a known RET inhibitor, was treated to calculate the GI50 values.

RET-NCOA4 (PTC3) = biological target: T4, RET-NCOA4 (PTC3) (Homo sapiens, UniProt P07949); assay: Kinase panel inhibition, radiolabeled [γ-33P] ATP (Reaction Biology Corp); assay type: biochemical; settings: compound at 1 uM; ATP 10 µM; read-out: % Enzyme Activity (relative to DMSO controls) RET-NCOA4 (PTC3)
T4 construct: purchased Reaction Biology Corp
T4 sequence (P07949 whole entry, looked up): as above

RET (G810S/M918T) = biological target: T5, RET (G810S/M918T) (Homo sapiens, UniProt P07949, G810S/M918T); assay: as above; assay type: biochemical; settings: compound at 10 uM, ATP 1 µM
T5 construct: purchased Reaction Biology Corp
T5 sequence (P07949 29-1114 G810S/M918T): as the sequence (P07949 29-1114 G810R) above, with R782S, M890T counted along it

[1] = Data 1, read-out: % Enzyme Activity (relative to DMSO controls) RET-CCDC6 (PTC1) Data 1
[2] = Data 2, read-out: % Enzyme Activity (relative to DMSO controls) RET-CCDC6 (PTC1) Data 2
[3] = Data 1, read-out: % Enzyme Activity (relative to DMSO controls) RET (G810S/M918T) Data 1
[4] = Data 2, read-out: % Enzyme Activity (relative to DMSO controls) RET (G810S/M918T) Data 2

Nc1cc(-c2ccc(N3CC(Oc4cccc(F)c4)C3)nc2)c2nccnc2c1 [Example 1, 8-(6-(3-(3-fluorophenoxy)azetidin-1-yl)pyridin-3-yl)quinoxalin-6-amine]
remaining activity at 1 µM (RET(G810R)): 24.5% | IC50 (RET(G810R)): 275 nM | IC50 (KIF5B-RET): 2.2 nM | IC50 (BaF3 KIF5B-RET (G810R)): 0.88 µM | remaining activity at 1 µM (RET-CCDC6 (PTC1)): 0.01% | remaining activity at 10 µM (RET-CCDC6 (PTC1); [1]): 0.75% | remaining activity at 10 µM (RET-CCDC6 (PTC1); [2]): 0.52% | GI50 (BaF3-RET(V804M)): 1460 nM | remaining activity at 1 µM (RET-NCOA4 (PTC3)): 1.11% | remaining activity at 10 µM (RET (G810S/M918T); [3]): 0.22% | remaining activity at 10 µM (RET (G810S/M918T); [4]): -0.72%

CCNc1cc(-c2ccc(N3CC(Oc4cccc(F)c4)C3)nc2)c2nccnc2c1 [Example 3, N-ethyl-8-(6-(3-(3-fluorophenoxy)azetidin-1-yl)pyridin-3-yl)quinoxalin-6-amine]
remaining activity at 1 µM (RET(G810R)): 11.4% | IC50 (RET(G810R)): 142 nM | IC50 (KIF5B-RET): < 0.5 nM | IC50 (BaF3 KIF5B-RET (G810R)): 1.09 µM | remaining activity at 1 µM (RET-CCDC6 (PTC1)): 18.6% | remaining activity at 10 µM (RET-CCDC6 (PTC1); [1]): 0.73% | remaining activity at 10 µM (RET-CCDC6 (PTC1); [2]): 0.91% | GI50 (BaF3-RET(V804M)): 661 nM | remaining activity at 1 µM (RET-NCOA4 (PTC3)): 16.8% | remaining activity at 10 µM (RET (G810S/M918T); [3]): -0.47% | remaining activity at 10 µM (RET (G810S/M918T); [4]): -0.51%
